Read-outs that look alike come from different tables or passages of the source. *1 amine or outer side, *2 acyl side, *3 side chain or, on linkers, in order; H or OH if unused. Where a SMILES comes first, the peptide text is derived from it. Bridges are numbered along the chain shown (N, C = ends). Roman numbers before positions name the chains, in order. [ ]: non-standard residue; d: D form. The star is where a group is joined. Hexanoyl(6-succinimido-3yl) = O=C1CC([*:1])C(=O)N1CCCCCC(=O)[*:2]; Dolaproine = CO[C@@H]([C@@H]1CCCN1)[C@@H](C)C(=O)O; Dil = CC[C@H](C)[C@H](NC)[C@@H](CC(=O)O)OC; PABC = O=C(OCc1ccc(N[*:1])cc1)[*:2]; Palmitoyl = CCCCCCCCCCCCCCCC(=O)*; X1 = C[C@@H](N*)[C@@H](O)c1ccccc1; Cit = NC(=O)NCCC[C@H](N)C(=O)O; NMeV = CN[C@H](C(=O)O)C(C)C

A short description of data set [1]: Fluorescence polarization of PA nanostructures. As to conditions: ICG‐conjugated SA‐E (10 mol%) mixed with MMAE‐conjugated SA‐E (90 mol%), 200 µM total; mean ± SEM. The class given is physicochemical. The procedure: ICG (10 mol%) containing PA micelles were prepared by mixing ICG‐conjugated PAs with unconjugated or MMAE‐conjugated PAs to achieve a final concentration of 20 µM ICG‐conjugated PAs and 200 µM of total PAs. Aliquots of 100 µL were added to a 96‐well plate (3 wells for each PA). Fluorescence polarization measurements were performed using a microplate reader (TECAN Spark 20 M). The corrected parallel intensity (I par) and perpendicular intensity (Iper) were used to calculate the fluorescence anisotropy (r) using the following equation: r = […].

A further data set relates to 4T1 tumor. The data set can be described thus: Antitumor effect, 4T1 orthotopic mouse model. As for the experimental part:
(§1) All experiments were approved by the Oregon Health and Science University (OHSU) Institutional Animal Care and Use Committee (IACUC) (TR01_IP00000674) and conformed to the guidelines set by the United States Animal Welfare Act and the National Institutes of Health. Mice were aged between 3 and 8 months and 20–30 g in weight and were housed in specific pathogen free cages. Human, mouse, or rat cells were injected into nude (The Jackson Laboratory, 002019), NSG mice (The Jackson Laboratory, 005557), Balb/c mice (The Jackson Laboratory, 000651), or C57Bl/6J mice (The Jackson Laboratory, 000664), as specified below. Cells were injected in 100 µL sterile DMEM at a concentration of 0.5–1×10^7 cells mL^−1, unless otherwise specified. For tumor accumulation and biodistribution studies, A375 cells were injected intradermally into the left ears of NSG mice (The Jackson Laboratory, 005557). MCF7 cells were injected into the mammary fat pad of NSG mice. HCT‐116, RG2, and HeLa (wild type or LDL‐R knockout) cells were subcutaneously injected into the left or both flanks of NSG mice. 4T1 cells were injected into the mammary fat pad of Balb/c mice. LLC1, MC38, and TRAMP‐C2 (wild type or SR‐B1 knockout) were injected into C57Bl/6J mice. Patient‐derived xenografts were generated by injecting the patient‐derived cancer cells subcutaneously into the left flank of NSG mice. ApoA1 and LDL‐R knockout mice were purchased from the Jackson Laboratory (002055 and 002207, respectively). MC38 cells were subcutaneously injected into both flanks of these mice. Apc^min and MMTV‐PyMT mice were purchased from the Jackson Laboratory (002020 and 002374). For antitumor activity studies, 4T1 cells were injected into the mammary fat pad of Balb/c mice. HCT‐116 and RG2 cells were subcutaneously injected into the left flanks of nude mice. For antitumor activity studies, HCT‐116 cells were injected in a 1:1 mixture of DMEM and Matrigel (Life Science 354263).
(§2) Mice were injected with 4T1, RG2, or HCT‐116 cells as described above. Mice were then treated intravenously with the free MMAE (0.1 or 0.3 mg kg^−1), SA‐E‐MMAE (0.3, 0.6, 0.8, or 1 mg kg^−1) or PBS (10 mM, pH 7.4). 5 doses were given every 2–3 days over 11 days. […] Tumor size and mouse weight were monitored 2–3 times per week until a humane endpoint (tumor size ≈2 cm or >20% body weight loss) or the study endpoint (18, 25, or 120 days for 4T1, RG2, and HCT‐116 studies, respectively). Tumor size was measured in two directions with a caliper rounded to the nearest tenth of a mm. Volume was calculated as a basic sphere of 4/3πr^3.

In another data set the test system is RG2 xenografts. The data set can be described thus: Antitumor effect, RG2 xenografts in nude mice. It is filed as in vivo, mouse. As to conditions: 1 mg kg^−1 IV, 5 doses. The procedure: All experiments were approved by the Oregon Health and Science University (OHSU) Institutional Animal Care and Use Committee (IACUC) (TR01_IP00000674) and conformed to the guidelines set by the United States Animal Welfare Act and the National Institutes of Health. Mice were aged between 3 and 8 months and 20–30 g in weight and were housed in specific pathogen free cages. Human, mouse, or rat cells were injected into nude (The Jackson Laboratory, 002019), NSG mice (The Jackson Laboratory, 005557), Balb/c mice (The Jackson Laboratory, 000651), or C57Bl/6J mice (The Jackson Laboratory, 000664), as specified below. Cells were injected in 100 µL sterile DMEM at a concentration of 0.5–1×10^7 cells mL^−1, unless otherwise specified. For tumor accumulation and biodistribution studies, A375 cells were injected intradermally into the left ears of NSG mice (The Jackson Laboratory, 005557). MCF7 cells were injected into the mammary fat pad of NSG mice. […]
Mice were injected with 4T1, RG2, or HCT‐116 cells as described above. […] Tumor size and mouse weight were monitored 2–3 times per week until a humane endpoint (tumor size ≈2 cm or >20% body weight loss) or the study endpoint (18, 25, or 120 days for 4T1, RG2, and HCT‐116 studies, respectively). Tumor size was measured in two directions with a caliper rounded to the nearest tenth of a mm. Volume was calculated as a basic sphere of 4/3πr^3.

A further data set concerns HCT‐116 tumor. The procedure: as §1, §2
Data set [2] concerns LPs (HDL, LDL, VLDL) and albumin in pooled human plasma. The data set can be described thus: FPLC of PAs in 10% human plasma. As to conditions: MMAE conjugated SA‐E, 250 µM, detection at 250 nm.
Procedure: FPLC experiments were performed using SA‐E, SA‐K, or No‐SA conjugated with ICG or SA‐E conjugated with MMAE at a final concentration of 250 µM in filtered PBS (10 mM, pH 7.4) with or without human plasma or purified LPs or albumin. For analysis of SA‐E interactions with purified LPs, VLDL, LDL, HDL, and human serum albumin were diluted in filtered PBS to approximate concentrations found in 10% human plasma: 0.0025, 0.13, 0.05, and 5mg mL^−1, respectively. SA‐E was incubated with the purified LP/protein mixture for 30 min at 37 °C before injection. For analysis of plasma interactions, PAs or No‐SA were incubated in PBS containing 10% pooled human plasma for 30 min at 37 °C before injection. The total volume injected for all samples was 400 µL. All data was collected on an ÄKTA pure chromatography system using the following running conditions: size exclusion chromatography on a Superose 6 Increase 10/300 GL column with a column volume (CV) of 30 mL, pre‐column pressure limit of 5 MPa, delta‐column pressure limit of 2.6 MPa, flow rate of 0.75 mL min^−1, in 100% PBS. The sample running method included first an equilibration step before injection of the sample with 100% PBS for 0.5 CV, followed by sample application via 1 mL capillary loop in 100% PBS, and finished with a linear elution consisting of 2 CV collected in 1 mL fractions. The UV‐Vis detector wavelengths were 250, 280, and 700 nm to detect MMAE, all proteins/LPs, and ICG, respectively.

Turning to `CCCCCCCCCCCCCCCC(=O)NCC(=O)NCC(=O)NCC(=O)N[C@@H](Cc1c[nH]cn1)C(=O)N[C@@H](C)C(=O)N[C@@H](C)C(=O)N[C@@H](CC(N)=O)C(=O)NCC(=O)N[C@@H](CCC(=O)O)C(=O)N[C@@H](CCC(=O)O)C(=O)N[C@@H](CSC1CC(=O)N(CCCCCC(=O)N[C@H](C(=O)N[C@@H](CCCNC(N)=O)C(=O)Nc2ccc(COC(=O)N(C)[C@H](C(=O)N[C@H](C(=O)N(C)[C@@H]([C@@H](C)CC)[C@@H](CC(=O)N3CCC[C@H]3[C@H](OC)[C@@H](C)C(=O)N[C@H](C)[C@@H](O)c3ccccc3)OC)C(C)C)C(C)C)cc2)C(C)C)C1=O)C(=O)N[C@@H](CCC(=O)O)C(=O)O` (some centres unmarked) [SA‐E‐MMAE] (I: Palmitoyl-GGGHAANGEECE-OH / II: V[Cit][PABC][NMeV]V[Dil][Dolaproine]-X1; linker I:11-II:N via Hexanoyl(6-succinimido-3yl); C-terminus assumed), the “fluorescence anisotropy of ICG in micelles” value in data set [1] is listed as 0.188 ± 0.002. In the data set on 4T1 tumor (0.6 mg kg^−1 (based on MMAE) IV, 5 doses over 11 days, n = 5, versus free MMAE and PBS), the tumor growth reduction result is listed as “≈ 75%”. For the same compound, the body weight result with 4T1 tumor (0.6 mg kg^−1 IV, 5 doses) is “no significant weight loss”; with RG2 xenografts (at the beginning of the therapy, overall tolerated), “slight weight loss”. For the same compound, the “reduction in the tumor volume” value in the data set on RG2 xenografts (n = 4, compared to the control) was “around 80%”. Besides, in the data set on HCT‐116 tumor (0.8 mg kg^−1 IV, 5 doses, n = 4, log‐rank), the overall survival entry is recorded as “significantly improved the overall survival”. Moreover, the “effect on tumor size” value with HCT‐116 tumor (0.8 mg kg^−1 of MMAE IV, days 11, 14, 17, 19, 21, all mice, n = 4) is recorded as “reduction in the tumor size”. Also, the average tumor volume entry with HCT‐116 tumor (day 21, end of treatment) was “≈ 150 mm^3”; with HCT‐116 tumor (day 33), “≈ 40 mm^3”. Also, in the data set with HCT‐116 tumor (day 120), the “tumor‐free mice” value is “one mouse remained tumor‐free on day 120”. The “plasma component bound (FPLC)” value in data set [2] was “assembled with HDL”.

The values are drawn from paper PMC12801355, “Peptide Amphiphiles Hitchhike on Endogenous Biomolecules for Enhanced Cancer Imaging and Therapy” (Advanced Materials (Deerfield Beach, Fla.), 2025).
